Test results taken from patent publication US8399681B2, “Substituted aminothiazolone indazoles as estrogen related receptor-alpha modulators” (Janssen Pharmaceutica NV, priority 2009, dated 2013).

Molecular target: T1, ERR1 (also known as ERR-α or ERR-1) (Homo sapiens, UniProt P11474)
T1 sequence (P11474 193-421 limits assumed): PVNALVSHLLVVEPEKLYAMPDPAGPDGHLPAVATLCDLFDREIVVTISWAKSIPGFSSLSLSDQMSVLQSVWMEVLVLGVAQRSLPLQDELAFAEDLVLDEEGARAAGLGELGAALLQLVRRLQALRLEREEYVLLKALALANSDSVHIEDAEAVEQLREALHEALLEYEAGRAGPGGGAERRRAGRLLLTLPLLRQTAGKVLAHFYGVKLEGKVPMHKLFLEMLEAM
Test: TR-FRET assay (disruption of co-activator peptide binding)
Assay type: biochemical
Details: 6His-tagged ERR1 LBD, GST-hSRC2 co-activator polypeptide; average of 3 independent experiments
Outline: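 His6-ERR1 LBD (6 nM) with GST-SRC-2 peptide (6 nM), anti-GST Eu cryptate (30 nM) and anti-His XL665 (7.5 nM) in Tris pH 8/KCl/DTT/BSA buffer, equilibrated 4-18 h at 25 °C. Ex 340, em 615/665 nm; hyperbolic dose-response fit, mean of 3 experiments.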

SMILES | EC50 [nM]
CS(=O)(=O)c1ccc(Cn2ncc3cc(/C=C4\SC(N5CCN(CCO)CC5)=NC4=O)ccc32)c(C(F)(F)F)c1 [Compound 16, 2-[4-(2-Hydroxy-ethyl)-piperazin-1-yl]-5-[1-(4-methanesulfonyl-2-trifluoromethyl-benzyl)-1H-indazol-5-ylmethylene]-thiazol-4-one] | 450
CC(=O)N[C@@H]1C[C@H](CO)N(C2=NC(=O)/C(=C/c3ccc4c(cnn4Cc4ccc(C(F)(F)F)cc4C(F)(F)F)c3)S2)C1 [Example 259, N-{1-[(3R,5R)-5-({1-[2,4-Bis(trifluoromethyl)benzyl]-1H-indazol-5-yl}methylidene)-4-oxo-4,5-dihydro-1,3-thiazol-2-yl]-5-(hydroxymethyl)pyrrolidin-3-yl}acetamide] | 30
O=C1N=C(N2CC3CC2CN3)S/C1=C\c1ccc2c(cnn2Cc2ccc(Cl)cc2C(F)(F)F)c1 [Example 100, 5-[1-(4-Chloro-2-trifluoromethyl-benzyl)-1H-indazol-5-ylmethylene]-2-(2S,5S-diaza-bicyclo[2.2.1]hept-2-yl)-thiazol-4-one] | 14
O=C1N=C(N2CCNC[C@@H]2CO)S/C1=C\c1ccc2c(cnn2Cc2ccc(C(F)(F)F)cc2C(F)(F)F)c1 [Example 104, 5-[1-(2,4-Bis-trifluoromethyl-benzyl)-1H-indazol-5-ylmethylene]-2-(2-hydroxymethyl-piperazin-1-yl)-thiazol-4-one] | 18.2
CN1CCN(C2=NC(=O)/C(=C/c3ccc4c(cnn4Cc4ccc(C(F)(F)F)cc4C4CC4)c3)S2)CC1 [Example 29, 5-[1-(2-Cyclopropyl-4-trifluoromethyl-benzyl)-1H-indazol-5-ylmethylene]-2-(4-methyl-piperazin-1-yl)-thiazol-4-one] | 38
COC[C@@H]1CN(C2=NC(=O)/C(=C/c3ccc4c(cnn4Cc4ccc(C(F)(F)F)cc4C(F)(F)F)c3)S2)CCO1 [Example 234, 5-({1-[2,4-Bis(trifluoromethyl)benzyl]-1H-indazol-5-yl}methylidene)-2-[2-(S)-(methoxymethyl)morpholin-4-yl]-1,3-thiazol-4(5H)-one] | 16
O=C1N=C(N2CCC(N3CCCC(O)C3)CC2)S/C1=C\c1ccc2c(cnn2Cc2ccc(Cl)cc2C(F)(F)F)c1 (stereo not drawn) [Example 166, 5-[1-(4-Chloro-2-trifluoromethyl-benzyl)-1H-indazol-5-ylmethylene]-2-(3-hydroxy-[1,4′]bipiperidinyl-1′-yl)-thiazol-4-one] | 19
C[C@@H]1CN(C)CCN1C1=NC(=O)/C(=C/c2ccc3c(cnn3Cc3ccc(Cl)cc3C(F)(F)F)c2)S1 [Example 193, 5-({1-[4-Chloro-2-(trifluoromethyl)benzyl]-1H-indazol-5-yl}methylidene)-2-(2-(R),4-dimethylpiperazin-1-yl)-1,3-thiazol-4(5H)-one] | 11
CC(C)(O)c1ccc(Cn2ncc3cc(/C=C4\SC(N5CCN[C@@H](CO)C5)=NC4=O)ccc32)c(Cl)c1 [Example 229, 5-({1-[2-Chloro-4-(1-hydroxy-1-methylethyl)benzyl]-1H-indazol-5-yl}methylidene)-2-[3-(R)-(hydroxymethyl)piperazin-1-yl]-1,3-thiazol-4(5H)-one] | 580
O=C1N=C(N2CCN(CCO)CC2)S/C1=C\c1ccc2c(cnn2Cc2ccc(Cl)cc2C(F)(F)F)c1 [Compound 13, 5-[1-(4-Chloro-2-trifluoromethyl-benzyl)-1H-indazol-5-ylmethylene]-2-[4-(2-hydroxy-ethyl)piperazin-1-yl]-thiazol-4-one] | 4.7
CONC(=O)C1CN(C2=NC(=O)/C(=C/c3ccc4c(cnn4Cc4ccc(C(F)(F)F)cc4C(F)(F)F)c3)S2)CCN1 (stereo not drawn) [Example 272, 4-[5-({1-[2,4-Bis(trifluoromethyl)benzyl]-1H-indazol-5-yl}methylidene)-4-oxo-4,5-dihydro-1,3-thiazol-2-yl]-N-methoxypiperazine-2-carboxamide] | 35
O=C1N=C(N2CCN[C@@H](CO)C2)S/C1=C\c1ccc2c(cnn2Cc2ccc(Cl)cc2C(F)(F)F)c1 [Example 132, 5-[1-(4-Chloro-2-trifluoromethyl-benzyl)-1H-indazol-5-ylmethylene]-2-(3-(R)-hydroxymethyl-piperazin-1-yl)-thiazol-4-one] | 10.7
CS(=O)(=O)c1ccc(Cn2ncc3cc(/C=C4\SC(N5CCN(CCO)CC5)=NC4=O)ccc32)c(Cl)c1 [Compound 19, 5-[1-(2-Chloro-4-methanesulfonyl-benzyl)-1H-indazol-5-ylmethylene]-2-[4-(2-hydroxy-ethyl)-piperazin-1-yl]-thiazol-4-one] | 350
O=C1CCN(C2=NC(=O)/C(=C/c3ccc4c(cnn4Cc4ccc(C(F)(F)F)cc4C(F)(F)F)c3)S2)CCN1 [Example 118, 1-{5-[1-(2,4-Bis-trifluoromethyl-benzyl)-1H-indazol-5-ylmethylene]-4-oxo-4,5-dihydro-thiazol-2-yl}-[1,4]diazepan-5-one] | 7.3
Cc1nn(Cc2ccc(Cl)cc2C(F)(F)F)c2ccc(/C=C3\SC(N4CCC(C(=O)O)CC4)=NC3=O)cc12 [Example 276, 1-[5-({1-[4-Chloro-2-(trifluoromethyl)benzyl]-3-methyl-1H-indazol-5-yl}methylidene)-4-oxo-4,5-dihydro-1,3-thiazol-2-yl]piperidine-4-carboxylic acid] | 24
C[C@H]1CN(C2=NC(=O)/C(=C/c3ccc4c(cnn4Cc4ccc(Cl)cc4C(F)(F)F)c3)S2)[C@@H](C)CN1 [Example 65, 5-[1-(4-Chloro-2-trifluoromethyl-benzyl)-1H-indazol-5-ylmethylene]-2-(2-(S),5-(S)-dimethyl-piperazin-1-yl)-thiazol-4-one] | 17
CNC(=O)[C@H]1CN(C2=NC(=O)/C(=C/c3ccc4c(cnn4Cc4ccc(Cl)cc4C(F)(F)F)c3)S2)CCN1 [Example 226, (2R)-4-[5-({1-[4-Chloro-2-(trifluoromethyl)benzyl]-1H-indazol-5-yl}methylidene)-4-oxo-4,5-dihydro-1,3-thiazol-2-yl]-N-methylpiperazine-2-carboxamide] | 8
O=C1N=C(N2CCC[C@@H]2C(=O)O)S/C1=C\c1ccc2c(cnn2Cc2ccc(Cl)cc2C(F)(F)F)c1 [Example 46, 1-{5-[1-(4-Chloro-2-trifluoromethyl-benzyl)-1H-indazol-5-ylmethylene]-4-oxo-4,5-dihydro-thiazol-2-yl}-pyrrolidine-2-(R)-carboxylic acid] | 27
N#Cc1nn(Cc2ccc(C(F)(F)F)cc2C(F)(F)F)c2ccc(/C=C3\SC(N4CCN[C@H](CO)C4)=NC3=O)cc12 [Example 218, 1-[2,4-Bis(trifluoromethyl)benzyl]-5-({2-[3-(S)-(hydroxymethyl)piperazin-1-yl]-4-oxo-1,3-thiazol-5(4H)-ylidene}methyl)-1H-indazole-3-carbonitrile] | 36
O=C1CCN(C2=NC(=O)/C(=C/c3ccc4c(cnn4Cc4ccc(Cl)cc4C(F)(F)F)c3)S2)CCN1 [Example 114, 1-{5-[1-(4-Chloro-2-trifluoromethyl-benzyl)-1H-indazol-5-ylmethylene]-4-oxo-4,5-dihydro-thiazol-2-yl}-[1,4]diazepan-5-one] | 13
COCCN1CCN(C2=NC(=O)/C(=C/c3ccc4c(cnn4Cc4ccc(Cl)cc4C(F)(F)F)c3)S2)[C@H](C)C1 [Example 199, 5-({1-[4-Chloro-2-(trifluoromethyl)benzyl]-1H-indazol-5-yl}methylidene)-2-[4-(2-methoxyethyl)-2-(R)-methylpiperazin-1-yl]-1,3-thiazol-4(5H)-one] | 11
N[C@@H]1CCCN(C2=NC(=O)/C(=C/c3ccc4c(cnn4Cc4ccc(C(F)(F)F)cc4C(F)(F)F)c3)S2)C1 [Example 53, 2-(3-(R)-Amino-piperidin-1-yl)-5-[1-(2,4-bis-trifluoromethyl-benzyl)-1H-indazol-5-ylmethylene]-thiazol-4-one] | 13
O=C1N=C(N2CCN(C3CC3)CC2)S/C1=C\c1ccc2c(cnn2Cc2ccc(C(F)(F)F)cc2C(F)(F)F)c1 [Example 122, 5-[1-(2,4-Bis-trifluoromethyl-benzyl)-1H-indazol-5-ylmethylene]-2-(4-cyclopropyl-piperazin-1-yl)-thiazol-4-one] | 41.8
CC(C)(C)NC(=O)[C@@H]1CN(C2=NC(=O)/C(=C/c3ccc4c(cnn4Cc4ccc(C(F)(F)F)cc4C(F)(F)F)c3)S2)CCN1 [Example 220, 4-[5-({1-[2,4-Bis(trifluoromethyl)benzyl]-1H-indazol-5-yl}methylidene)-4-oxo-4,5-dihydro-1,3-thiazol-2-yl]-N-tert-butylpiperazine-2-(S)-carboxamide] | 21.4
CN1CCN(C2=NC(=O)/C(=C/c3ccc4c(cnn4Cc4ccc(OS(C)(=O)=O)cc4C(F)(F)F)c3)S2)CC1 [Compound 23, Methanesulfonic acid 4-{5-[2-(4-methyl-piperazin-1-yl)-4-oxo-4H-thiazol-5-ylidenemethyl]-indazol-1-ylmethyl}-3-trifluoromethyl-phenyl ester] | 10.4
CN1CCN(C2=NC(=O)/C(=C/c3ccc4c(cnn4Cc4ccc(C5CC5)cc4C(F)(F)F)c3)S2)CC1 [Example 27, 5-[1-(4-Cyclopropyl-2-trifluoromethyl-benzyl)-1H-indazol-5-ylmethylene]-2-(4-methyl-piperazin-1-yl)-thiazol-4-one] | 11
COC(=O)CCNC(=O)C1CN(C2=NC(=O)/C(=C/c3ccc4c(cnn4Cc4ccc(Cl)cc4C(F)(F)F)c3)S2)C1 [Example 152, 3-[(1-{5-[1-(4-Chloro-2-trifluoromethyl-benzyl)-1H-indazol-5-ylmethylene]-4-oxo-4,5-dihydro-thiazol-2-yl}-azetidine-3-carbonyl)-amino]-propionic acid methyl ester] | 24
